In US9988381B2, “Five-member-heterocycle fused pyridine compounds, method of producing the same, and use thereof” (SHANGHAI INSTITUTE OF MATERIA MEDICA, CHINESE ACADEMY OF …, priority 2013, dated 2018):
Like-named read-outs stand apart in the source and are kept apart here.

What was measured:
[1] = biological target: T1, c-Met kinase domain recombinant protein (Homo sapiens, UniProt P08581); experiment: biochemical; settings: read-out: Inhibition rate at 10 μM (%)
T1 construct: 50 μL diluted solution of c-Met kinase domain recombinant protein in reaction buffer was added to initiate the reaction
T1 sequence (P08581 1078-1345 limits assumed): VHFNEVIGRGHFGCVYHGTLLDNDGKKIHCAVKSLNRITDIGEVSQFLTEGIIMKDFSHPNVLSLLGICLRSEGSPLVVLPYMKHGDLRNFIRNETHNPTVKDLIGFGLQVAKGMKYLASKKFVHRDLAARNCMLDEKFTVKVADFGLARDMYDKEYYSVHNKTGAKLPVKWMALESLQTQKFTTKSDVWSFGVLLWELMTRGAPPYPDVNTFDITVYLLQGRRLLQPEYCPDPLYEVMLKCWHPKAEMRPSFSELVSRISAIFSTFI
Experimental: (§1) Enzymatic reaction substrate Poly(Glu,Tyr)4:1 was diluted to 20 μg/mL in potassium ion free PBS (10 mM sodium phosphate buffer, 150 mM NaCl, pH7.2-7.4), microplate was coated with this solution at 125 μL per well, and reacted at 37° C. for 12-16 hours. Liquid in wells was discarded. Plate washing: the plate was washed 3 times for 5 minutes each with 200 μL per well of T-PBS (potassium ion free PBS containing 0.1% Tween-20).
Into each well was added 49 μL diluted ATP solution in reaction buffer (50 mM HEPES pH 7.4, 50 mM MgCl2, 0.5 mM MnCl2, 0.2 mM Na3VO4, 1 mM DTT), and 1 μL per well of compound to be tested was added, then 50 μL diluted solution of c-Met kinase domain recombinant protein in reaction buffer was added to initiate the reaction, each test was setup with two wells of ATP free control. Reaction was performed in a 37° C. shaker (100 rpm) for 1 hour. Liquid in the wells was discarded, and the plate was washed three times with T-PBS.
Antibody PY99 was added at 100 μL per well (the antibody was 1:500 diluted in T-PBS containing 5 mg/mL BSA), incubated in a 37° C. shaker for 0.5 hour. Liquid in the wells was discarded, and the plate was washed three times with T-PBS.
Goat anti mouse secondary antibody labeled with horseradish peroxidase was added at 100 μL per well (the antibody was 1:2000 diluted in T-PBS containing 5 mg/mL BSA), incubated in a 37° C. shaker for 0.5 hour. Liquid in the wells was discarded, and the plate was washed three times with T-PBS.
Reaction was terminated by adding 50 μL per well of 2M H2SO4, the plate was read at 490 nm using a VERSAmax microplate reader with tunable wavelength.
(§2) Inhibition rate of the sample was calculated using the following equation: […]

[2] = biological target: T1, c-Met kinase domain recombinant protein; experiment: biochemical; settings: for inhibition at 0.1 µM: read-out: Average inhibition rate at 0.1 μM (%); for inhibition at 1 µM: read-out: Average inhibition rate at 1 μM (%); for inhibition at 10 µM: read-out: Average inhibition rate at 10 μM (%)
Experimental: as §1, with “discarded, then” for “discarded. Plate washing:”, “(PBS” for “(potassium ion free PBS”
Into each well was added 50 μL diluted ATP solution in reaction buffer (50 mM HEPES pH 7.4, 50 mM MgCl2, 0.5 mM MnCl2, 0.2 mM Na3VO4, 1 mM DTT), the final concentration was 5 μM. Test compound was diluted in DMSO to proper concentration, added at 1 μL per well or corresponding level of DMSO (negative control wells), then 49 μL diluted solution of c-Met kinase domain recombinant protein in reaction buffer was added to initiate the reaction, each test was setup with two wells of ATP free control. Reaction was performed in a 37° C. shaker (100 rpm) for 1 hour. The plate was washed three times with T-PBS. Primary antibody PY99 diluted solution was added at 100 μL per well, incubated in a 37° C. shaker for 0.5 hour.
The plate was washed three times with T-PBS. Goat anti mouse secondary antibody labeled with horseradish peroxidase was added at 100 μL per well, incubated in a 37° C. shaker for 0.5 hour. The plate was washed three times with T-PBS. […] Reaction was terminated by adding 50 μL per well of 2M H2SO4, the plate was read at 490 nm using a SPECTRA MAX 190 microplate reader with tunable wavelength.
as §2
IC50 was calculated by fitting the data for a four parameter fit using inhibition curve.

Structure (SMILES)	inhibition at 10 µM [1]	inhibition at 0.1 µM [2]	inhibition at 1 µM [2]	inhibition at 10 µM [2]	IC50 [2]
CC(=O)c1ccc(-c2cnc3cnn(S(=O)(=O)c4cnc5ccccn45)c3c2)cc1 [Example 40, 1-(imidazo[1,2-a]pyridine-3-sulfonyl)-6-(4-acetylphenyl)-1-H-pyrazolo[4,3-b]pyridine]	66%	45.7%	57.4%	66%	–
CN(C)C(=O)c1ccc(-c2cnc3cnn(S(=O)(=O)c4cnc5ccccn45)c3c2)cc1 [Example 41, 1-(imidazo[1,2-a]pyridine-3-sulfonyl)-6-(4-dimethylaminocarbonylphenyl)-1-H-pyrazolo[4,3-b]pyridine]	68.7%	45.1%	54.6%	68.7%	–
CN(C)c1ccc(-c2cnc3cnn(S(=O)(=O)c4cnc5ccccn45)c3c2)cc1 [Example 42, 1-(imidazo[1,2-a]pyridine-3-sulfonyl)-6-(4-dimethylaminophenyl)-1-H-pyrazolo[4,3-b]pyridine]	67.5%	45.5%	58.4%	67.5%	–
COc1ccc(OC)c(-c2cnc3cnn(S(=O)(=O)c4cnc5ccccn45)c3c2)c1 [Example 43, 1-(imidazo[1,2-a]pyridine-3-sulfonyl)-6-(2,5-dimethoxyphenyl)-1-H-pyrazolo[4,3-b]pyridine]	58.4%	23.1%	47.6%	68.7%	–
CC(C)(C)OC(=O)N1CCC(n2cc(-c3cnc4cnn(S(=O)(=O)c5cnc6ncccn56)c4c3)cn2)CC1 [Example 52, 1-(imidazo[1,2-a]pyrimidine-3-sulfonyl)-6-{{1-[(1-t-butoxycarbonyl)-4-piperidinyl]}-4-pyrazolyl}-1-H-pyrazolo[4,3-b]pyridine]	54.5%	24.5%	50.3%	54.5%	–
O=C(c1ccc(C(F)(F)F)cc1)N1CCC(n2cc(-c3cnc4cnn(S(=O)(=O)c5cnc6ccccn56)c4c3)cn2)CC1 [Example 58, 1-(imidazo[1,2-a]pyridine-3-sulfonyl)-6-{{1-[(1-p-trifluoromethylbenzoyl)-4-piperidinyl]}-4-pyrazolyl}-1-H-pyrazolo[4,3-b]pyridine]	58.9%	52.8%	55.7%	57.4%	–
CC(C)(C)OC(=O)N1CCC(n2cc(-c3cnc4cnn(S(=O)(=O)c5cnc6ccc(-c7cnn(C8CCN(C(=O)OC(C)(C)C)CC8)c7)nn56)c4c3)cn2)CC1 [Example 62, 1-{(6-{{1-[(1-t-butoxycarbonyl)-4-piperidinyl]}-4-pyrazolyl}-imidazo[1,2-b]pyridazine)-3-sulfonyl}-6-{{1-[(1-t-butoxycarbonyl)-4-piperidinyl]}-4-pyrazolyl}-1-H-pyrazolo[4,3-b]pyridine]	62.6%	73.2%	73.2%	80%	–
O=S(=O)(c1cnc2ccc(C(F)(F)F)cn12)n1ncc2ncc(-c3cnn(C4CCNCC4)c3)cc21 [Example 65]	79.3%	60.8%	65.1%	69.8%	–
CC(C)(C)OC(=O)N1CCC(n2cc(-c3cnc4cnn(S(=O)(=O)c5cnc6ccc(-c7cnn(C8CCN(C(=O)OC(C)(C)C)CC8)c7)cn56)c4c3)cn2)CC1 [Example 68, 1-{(6-{{1-[(1-t-butoxycarbonyl)-4-piperidinyl]}-4-pyrazolyl}-imidazo[1,2-a]pyridine)-3-sulfonyl}-6-{{1-[(1-t-butoxycarbonyl)-4-piperidinyl]}-4-pyrazolyl}-1-H-pyrazolo[4,3-b]pyridine]	69.8%	50.2%	55.8%	62%	–
CC(C)N1CCC(n2cc(-c3cnc4cnn(S(=O)(=O)c5cnc6ccc(C(F)(F)F)cn56)c4c3)cn2)CC1 [Example 69]	79.9%	52.3%	57.7%	59.6%	–
Cn1cc(-c2cnc3cnn(S(=O)(=O)c4cnc5ccc(Br)cn45)c3c2)cn1 [Example 70, 1-[(6-bromo-imidazo[1,2-a]pyridine)-3-sulfonyl]-6-[(1-methyl)-4-pyrazolyl]-1-H-pyrazolo[4,3-b]pyridine]	68.2%	–	44.7%	79.3%	–
Cn1cc(-c2cnc3cnn(S(=O)(=O)c4cnc5ccc(-c6ccccc6)cn45)c3c2)cn1 [Example 71, 1-[(6-phenyl-imidazo[1,2-a]pyridine)-3-sulfonyl]-6-[(1-methyl)-4-pyrazolyl]-1-H-pyrazolo[4,3-b]pyridine]	62%	68.5%	73.4%	83.8%	100 ± 10 pM
Cn1cc(-c2cnc3cnn(S(=O)(=O)c4cnc5ccc(-c6cncnc6)cn45)c3c2)cn1 [Example 74, 1-{[6-(5-pyrimidine)-imidazo[1,2-a]pyridine]-3-sulfonyl}-6-[(1-methyl)-4-pyrazolyl]-1-H-pyrazolo[4,3-b]pyridine]	> 67.6%	–	–	12.1%	–
Cn1cc(-c2cnc3cnn(S(=O)(=O)c4cnc5ccc(-c6ccc(N7CCOCC7)cc6)cn45)c3c2)cn1 [Example 75, 1-{[6-(4-morpholinylphenyl)-imidazo[1,2-a]pyridine]-3-sulfonyl}-6-[(1-methyl)-4-pyrazolyl]-1-H-pyrazolo[4,3-b]pyridine]	> 77.3%	74.6%	75.6%	83.1%	–
Cn1cc(-c2cnc3cnn(S(=O)(=O)c4cnc5ccc(-c6ccc(C(F)(F)F)cc6)cn45)c3c2)cn1 [Example 77, 1-{[6-(4-trifluoromethylphenyl)-imidazo[1,2-a]pyridine]-3-sulfonyl}-6-[(1-methyl)-4-pyrazolyl]-1-H-pyrazolo[4,3-b]pyridine]	> 76.9%	55.8%	64.8%	85.5%	–
Cc1ccc(-c2ccc3ncc(S(=O)(=O)n4ncc5ncc(-c6cnn(C)c6)cc54)n3c2)cc1F [Example 78, 1-{[6-(3-fluoro-4-methylphenyl)-imidazo[1,2-a]pyridine]-3-sulfonyl}-6-[(1-methyl)-4-pyrazolyl]-1-H-pyrazolo[4,3-b]pyridine]	> 12.1%	64.5%	69.3%	89.3%	–
CC(C)Oc1ccc(-c2ccc3ncc(S(=O)(=O)n4ncc5ncc(-c6cnn(C)c6)cc54)n3c2)cc1 [Example 79]	> 83.1%	–	30.5%	77.4%	–
CN1CCN(C(=O)c2ccc(-c3ccc4ncc(S(=O)(=O)n5ncc6ncc(-c7cnn(C)c7)cc65)n4c3)cc2)CC1 [Example 80, 1-{[6-[4-(4-methylpiperazine-1-carbonyl)phenyl]-imidazo[1,2-a]pyridine]-3-sulfonyl}-6-[(1-methyl)-4-pyrazolyl]-1-H-pyrazolo[4,3-b]pyridine]	> 75.3%	–	47.5%	80.6%	–
